According to patent publication US12553889B2, “Small molecules targeting the intrinsically disordered structural ensemble of α-synuclein protect against diverse α-synuclein mediated dysfunctions” (The Regents of the University of California, priority 2019, dated 2026):

Tested on: αSyn
Test: αSyn split NanoBit luciferase (Nluc) oligomerization assay
Type: biochemical, human
Settings: 100 μM compound, 10 μM of each tagged αSyn; for activity in NanoBit complementation αSyn oligomerization assay: full time-course
Procedure: Ten μM αSyn-LgBiT, 10 μM αSyn-SmBiT, and Hsp70 (at 0, 10, or 30 μM), 1 mM MgCl2 and 1 mM ADP were mixed in PBS at pH 7.4 and incubated at 37° C. in a thermal cycler (BioRad DNA Engine PTC-200). At 0, 3, 6, 12 and 24 hours. The NanoBit luciferase activity was quantified using a NanoFuel® GLOW Assay for Oplophorus Luciferases (NanoLight) according to the manufacturer's instructions and read on SpectraMax L Microplate Reader (Molecular Devices) with an 8 minute delay after the addition of substrate and 1 sec integration time reading each well. The luciferase activity was normalized to the reaction without Hsp70 at 24 hour time point.
• 1. αSyn-LgBiT or LgBiT is mixed with αSyn-SmBiT at 10 μM of each (PBS pH 7.4); • 2. Incubate at 37 degree for 24 hours in PCR machine; • 3. Take 10 μL samples at 0/3/6/12/24 hours; • 4. Luminescence measurement is done using Luminometor (with injector) using h-CTZ (40 uM), 2 sec delay, 3 sec integration. Protocol: • 1. αSyn-LgBiT (10 uM) and αSyn-SmBiT (10 uM) are mixed in PBS buffer (pH 7.4); • 2. The reaction mixture is incubated in 37° C. incubator either being shaken (1000 rpm) or still; • 3. Samples are taken from the reaction at 0/3/12/24/36/48/72/96/120/144 h for ThT and Nluc assays; NLuc Assay:
• 1. Mix fusion proteins in PBS buffer (pH 7.4) to create the following three master mixes:
• 2. Dispense 10 μL protein master mix into 384-well plate (Greiner, 781904) using Mantis; • Col 1 & 23: Positive control • Col & 24: Negative control • Col 3-22: Reactions • 3. […] Seal plates using sticky foil (E&K Scientific T790080); • 5. Incubate the sealed plates at 37° C. with heat blocks above and beneath the sealed plates, use dummy plates around the reaction plate, incubate at 37° C. incubator in room N401 for 0-24 h; Day 2. I. Prepare the Plates and Substrate • 6. Cool the plates at room temp for 30 min after 24-hour incubation; • 7. Spin the plates at 500×g for 1 min; • 8. Make substrate mix (NanoLight Cat #325), keep it in darkness; II. Prepare the Plate Reader • 9. Turn on SpectraMaxL, make sure the aperture is in the right position (96/384 well):
To change: Control>Change Aperture>Lift the top panel>Press down the button and turn it to the right position>Put the panel down • 10. Put the P-injector tube into the H2O bottle, wash the injector: Control>Prime P-injector for 30× injections • 11. Remove the P-injector and leave it in the air, then empty the injector: Control>Prime P-injector for 30× injections; • 12. Put the P-injector from the substrate tube, prime the injector: Control>Prime P-injector for 20× injections III. Read the Plates • 13. Nluc assay: • Sample vol: 10 μl (dispensed on day 1) • Substrate vol: 25 μl (NanoLight Cat #325)
The SpectraMaxL will do two rounds of reads, the first round will inject substrates, the second round will read entire 384-well plate and make sure the interval between inject and read for each well is exactly the same (in this protocol, the interval is 8 min exactly)

## CNC(=O)c1cc(O)ccc1N [Compound 576755, 2-amino-5-hydroxy-N-methylbenzamide]
  activity in NanoBit complementation αSyn oligomerization assay: active

## CNC(=O)c1cc(O)ccc1N(C)C [Compound 581823, 2-dimethylamino-5-hydroxy-N-methylbenzamide]
  activity in NanoBit complementation αSyn oligomerization assay: active

## CNC(=O)c1cc(O)ccc1NC [Compound 581858, 2-methylamino-5-hydroxy-N-methylbenzamide]
  impact relative to 576755 in NanoBit complementation assay: slightly less impact than compound 576755
  activity in NanoBit complementation αSyn oligomerization assay: active

## CNC(=O)c1cc(O)ccc1O [Compound 583854, 2,5-dihydroxy-N-methylbenzamide]
  activity in NanoBit complementation αSyn oligomerization assay: active
